24 compounds from patent US20250270172A1, “Pyrimidine Derivatives As Modulators of the 5-HT2A Serotonin Receptor Useful For The Treatment of Disorders Related Thereto” (Arena Pharmaceuticals, Inc., priority 2020, published 2025) can be followed below.

The target of assay [1] is T1, 5-HT2A (Homo sapiens (Human), UniProt P28223). Description: HTRF IP-One antagonist assay, 5-HT2A.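 Note: clonal line with low receptor density (about 50–70 fmol/mg), 10-point dose-response from 10 µM in 5-fold steps, HTRF detection after 1 hr, triplicate points.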 The class given is cell-based. The note with it: HEK293 cells stably expressing receptor, inositol phosphate accumulation, 80 nM 5-HT in Assay Buffer. For orientation: Time-resolved FRET reads energy transfer from a long-lived donor to a nearby acceptor.
T1 sequence (P28223 whole entry): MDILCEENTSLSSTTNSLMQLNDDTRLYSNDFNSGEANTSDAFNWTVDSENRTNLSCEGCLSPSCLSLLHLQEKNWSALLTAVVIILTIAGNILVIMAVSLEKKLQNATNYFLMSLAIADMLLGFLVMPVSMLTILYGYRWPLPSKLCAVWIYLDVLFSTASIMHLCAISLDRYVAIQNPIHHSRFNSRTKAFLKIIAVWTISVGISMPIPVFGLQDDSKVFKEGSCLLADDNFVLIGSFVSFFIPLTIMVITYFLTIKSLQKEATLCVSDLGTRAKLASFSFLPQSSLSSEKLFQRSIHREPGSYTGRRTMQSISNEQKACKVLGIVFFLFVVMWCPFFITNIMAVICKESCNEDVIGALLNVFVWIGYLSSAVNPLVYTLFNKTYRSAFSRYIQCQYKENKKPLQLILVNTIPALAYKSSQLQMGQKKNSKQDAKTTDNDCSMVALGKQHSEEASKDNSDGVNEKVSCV
The target in assay [2] is T1, 5-HT2A. Description: Radioligand binding assay, [^3H]5-HT competition, 5-HT2A. Conditions: read-out: 5-HT2A serotonin binding Ki value.
In another assay the target is 5-HT2C (Homo sapiens (Human), UniProt P28335). Description: HTRF IP-One antagonist assay, 5-HT2C.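 Note: clonal HEK293 line with low 5-HT2C density (10–20 fmol/mg), HTRF detection of IP-One, 10-point dose curves from 10 µM in 5-fold steps, triplicate points.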 The class given is cell-based. Conditions: HEK293 cells stably expressing receptor, inositol phosphate accumulation, 80 nM 5-HT in Assay Buffer.
5-HT2C, sequence (P28335 33-458): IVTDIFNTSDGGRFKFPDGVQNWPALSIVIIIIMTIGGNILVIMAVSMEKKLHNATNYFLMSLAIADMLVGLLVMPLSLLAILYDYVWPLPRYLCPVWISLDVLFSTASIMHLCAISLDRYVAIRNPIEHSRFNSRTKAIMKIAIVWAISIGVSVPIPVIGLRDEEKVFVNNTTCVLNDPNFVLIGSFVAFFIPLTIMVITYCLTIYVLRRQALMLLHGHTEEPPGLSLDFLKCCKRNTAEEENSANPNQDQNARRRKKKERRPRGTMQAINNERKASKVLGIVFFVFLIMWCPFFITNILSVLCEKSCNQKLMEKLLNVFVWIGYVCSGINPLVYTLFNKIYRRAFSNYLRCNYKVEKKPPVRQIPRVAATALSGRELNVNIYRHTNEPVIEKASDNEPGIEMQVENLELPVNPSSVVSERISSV
The next assay addresses 5-HT2B (Homo sapiens (Human), UniProt P41595). Description: HTRF IP-One antagonist assay, 5-HT2B.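 Note: clonal HEK293 line with low 5-HT2B expression (estimated 150-200 fmol/mg by radioligand binding), IP-One HTRF readout, 10-point curves from 10 µM in 5-fold steps, triplicate points.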 The class given is cell-based. Conditions: HEK293 cells stably expressing receptor, inositol phosphate accumulation, 80 nM 5-HT in Assay Buffer.
Where [3] appears, read: [^3H]5-HT radioligand, membranes of HEK293 cells expressing recombinant 5-HT2A, Ki from IC50 by Cheng-Prusoff.

Values joined by “and” are separate entries in the source; they are usually repeats but may differ in a detail not shown here. Identical values can stand only once. Like-named read-outs stand apart in the source and are kept apart here. A value given as a limit tells only on which side of the number the result lay.

5-HT2B, sequence (P41595 whole entry): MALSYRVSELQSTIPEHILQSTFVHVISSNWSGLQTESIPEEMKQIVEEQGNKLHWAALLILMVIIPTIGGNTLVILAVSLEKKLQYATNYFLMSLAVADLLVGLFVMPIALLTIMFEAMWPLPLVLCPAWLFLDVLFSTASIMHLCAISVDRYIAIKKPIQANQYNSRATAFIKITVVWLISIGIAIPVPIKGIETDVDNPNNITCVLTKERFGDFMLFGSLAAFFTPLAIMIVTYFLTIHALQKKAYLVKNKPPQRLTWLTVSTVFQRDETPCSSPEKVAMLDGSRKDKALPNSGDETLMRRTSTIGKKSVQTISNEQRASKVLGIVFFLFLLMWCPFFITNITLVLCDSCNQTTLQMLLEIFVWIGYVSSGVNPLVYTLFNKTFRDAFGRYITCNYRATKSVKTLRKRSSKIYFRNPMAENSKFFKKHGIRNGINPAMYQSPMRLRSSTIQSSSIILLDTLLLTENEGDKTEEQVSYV

With `Cc1ncnc(C)c1-c1cc(NC(=O)c2c(F)cnn2C)ccc1OCCN1CCCC1` [Compound 290, N-[3-(4,6-dimethylpyrimidin-5-yl)-4-(2-pyrrolidin-1-ylethoxy)phenyl]-4-fluoro-2-methyl-pyrazole-3-carboxamide], the half-maximal inhibitory concentration (IC50) against 5-HT2A [1] came to 0.00736 µM; at 5-HT2C, 100 µM; on 5-HT2B it was 100 µM. In addition, the inhibitory constant (Ki) at 5-HT2A [2] (setting [3]) was determined as 0.00386 µM.
With `CCOC1CC1C(=O)Nc1ccc(OCCN2CCCC2)c(-c2c(C)ncnc2C)c1` (stereo not drawn) [Compound 291, N-(3-(4,6-dimethylpyrimidin-5-yl)-4-(2-(pyrrolidin-1-yl)ethoxy)phenyl)-2-ethoxycyclopropane-1-carboxamide], the IC50 is 0.00975 µM at 5-HT2A [1], 100 µM against 5-HT2C and 100 µM against 5-HT2B. Moreover, the Ki on 5-HT2A [2] (setting [3]) was 0.00504 µM and 0.0155 µM.
As for `Cc1ncnc(C)c1-c1cc(NC(=O)C2(CF)CC2)ccc1OCCN1CCCC1` [Compound 293, N-(3-(4,6-dimethylpyrimidin-5-yl)-4-(2-(pyrrolidin-1-yl)ethoxy)phenyl)-1-(fluoromethyl)cyclopropane-1-carboxamide], the concentration for half-maximal inhibition (IC50) against 5-HT2A [1] amounted to 0.0159 µM; against 5-HT2C it was 100 µM; against 5-HT2B it was 9.37 µM. Further, the Ki on 5-HT2A [2] (setting [3]) was 0.00856 µM.
On the same counts, the results for `Cc1ncnc(C)c1-c1cc(NC(=O)c2ccnn2C)ccc1OCCN1CCC1` [Compound 304, N-[4-[2-(azetidin-1-yl)ethoxy]-3-(4,6-dimethylpyrimidin-5-yl)phenyl]-2-methyl-pyrazole-3-carboxamide] are 0.00886 µM, 100 µM, 100 µM and 0.00725 µM.
The like results for `Cc1ncnc(C)c1-c1cc(NC(=O)C2(F)CC2)ccc1OCCN1CCC1` [Compound 305, N-(4-(2-(azetidin-1-yl)ethoxy)-3-(4,6-dimethylpyrimidin-5-yl)phenyl)-1-fluorocyclopropane-1-carboxamide] were, in that order, 0.00444 µM, 100 µM, 100 µM and 0.00261 µM.
As to `Cc1ncsc1CC(=O)Nc1ccc(OCCN2CCC2)c(-c2c(C)ncnc2C)c1` [Compound 307, N-(4-(2-(azetidin-1-yl)ethoxy)-3-(4,6-dimethylpyrimidin-5-yl)phenyl)-2-(4-methylthiazol-5-yl)acetamide], the concentration for half-maximal inhibition (IC50) was 0.00984 µM against 5-HT2A [1], 100 µM on 5-HT2C and not below 100 µM against 5-HT2B. Moreover, on 5-HT2A [2], the inhibition constant Ki amounted to 0.00589 µM.
Consider `Cc1ncnc(C)c1-c1cc(NC(=O)c2ccccc2)ccc1OCCN1CCC1` [Compound 308, N-(4-(2-(azetidin-1-yl)ethoxy)-3-(4,6-dimethylpyrimidin-5-yl)phenyl)benzamide], for which the values for the concentration for half-maximal inhibition (IC50) against 5-HT2A [1], at 5-HT2C and at 5-HT2B were 0.0147 µM, 100 µM and 100 µM, respectively. In addition, the Ki on 5-HT2A [2] (setting [3]) turned out to be 0.00328 µM.
For `Cc1ncnc(C)c1-c1cc(NC(=O)c2ccc(F)cc2)ccc1OCCN1CCC1` [Compound 309, N-(4-(2-(azetidin-1-yl)ethoxy)-3-(4,6-dimethylpyrimidin-5-yl)phenyl)-4-fluorobenzamide], the concentration for half-maximal inhibition (IC50) at 5-HT2A [1] was found to be 0.00632 µM; at 5-HT2C, 100 µM; against 5-HT2B, 0.806 µM. On 5-HT2A [2] (setting [3]), the Ki amounted to 0.00171 µM.
The like results for `COc1cccc(C(=O)Nc2ccc(OCCN3CCC3)c(-c3c(C)ncnc3C)c2)c1` [Compound 310, N-(4-(2-(azetidin-1-yl)ethoxy)-3-(4,6-dimethylpyrimidin-5-yl)phenyl)-3-methoxybenzamide] were, in that order, 0.00331 µM, 100 µM, 1.91 µM and 0.00158 µM.
Regarding `Cc1ncnc(C)c1-c1cc(NC(=O)Cc2cncc(F)c2)ccc1OCCN1CCC1` [Compound 314, N-(4-(2-(azetidin-1-yl)ethoxy)-3-(4,6-dimethylpyrimidin-5-yl)phenyl)-2-(5-fluoropyridin-3-yl)acetamide], the 50% inhibitory concentration (IC50) amounted to 0.0153 µM against 5-HT2A [1], 100 µM at 5-HT2C and 100 µM against 5-HT2B. The Ki at 5-HT2A [2] (setting [3]) was 0.00542 µM.
For the compound `Cc1ncnc(C)c1-c1cc(NC(=O)c2c(F)cnn2C)ccc1OCCN1CCC1` [Compound 316, N-(4-(2-(azetidin-1-yl)ethoxy)-3-(4,6-dimethylpyrimidin-5-yl)phenyl)-4-fluoro-1-methyl-1H-pyrazole-5-carboxamide], the results for the IC50 against 5-HT2A [1], at 5-HT2C and at 5-HT2B were 0.00699 µM, 100 µM and 3.19 µM, respectively. Besides, on 5-HT2A [2] (setting [3]), the Ki is 0.00498 µM.
For `COc1ccc(C(=O)Nc2ccc(OCCN3CCC3)c(-c3c(C)ncnc3C)c2)cc1` [Compound 318, N-(4-(2-(azetidin-1-yl)ethoxy)-3-(4,6-dimethylpyrimidin-5-yl)phenyl)-4-methoxybenzamide], the results for the IC50 on 5-HT2A [1], against 5-HT2C and on 5-HT2B were 0.0168 µM, 100 µM and 4.5 µM, respectively. For the same compound, the inhibition constant (Ki) on 5-HT2A [2] (setting [3]) was found to be 0.00409 µM.
On the same counts, the results for `Cc1ncnc(C)c1-c1cc(NC(=O)c2ccccc2F)ccc1OCCN1CCC1` [Compound 319, N-(4-(2-(azetidin-1-yl)ethoxy)-3-(4,6-dimethylpyrimidin-5-yl)phenyl)-2-fluorobenzamide] are 0.0143 µM, 100 µM, 2.36 µM and 0.00362 µM.
On the same counts, the results for `Cc1ncnc(C)c1-c1cc(NC(=O)c2cccc(C#N)c2)ccc1OCCN1CCC1` [Compound 325, N-(4-(2-(azetidin-1-yl)ethoxy)-3-(4,6-dimethylpyrimidin-5-yl)phenyl)-3-cyanobenzamide] are 0.00854 µM, 100 µM, 2.89 µM and 0.0017 µM.
On the same counts, the results for `Cc1ncnc(C)c1-c1cc(NC(=O)C2CC2)ccc1OCCN1CCC1` [Compound 344, N-(4-(2-(azetidin-1-yl)ethoxy)-3-(4,6-dimethylpyrimidin-5-yl)phenyl)cyclopropanecarboxamide] are 0.0102 µM, 100 µM, 1.21 µM and 0.00653 µM.
With `COC1CCN(CCOc2ccc(NC(=O)C3CC3)cc2-c2c(C)ncnc2C)CC1` [Compound 351, N-(3-(4,6-dimethylpyrimidin-5-yl)-4-(2-(4-methoxypiperidin-1-yl)ethoxy)phenyl)cyclopropanecarboxamide], the values for the IC50 against 5-HT2A [1], against 5-HT2C and on 5-HT2B were 0.00703 µM, 100 µM and 100 µM, respectively. In addition, on 5-HT2A [2] (setting [3]), the Ki is 0.00456 µM.
With `CO[C@@H]1CCN(CCOc2ccc(NC(=O)C3CC3)cc2-c2c(C)ncnc2C)C1` [Compound 353, (R)—N-(3-(4,6-dimethylpyrimidin-5-yl)-4-(2-(3-methoxypyrrolidin-1-yl)ethoxy)phenyl)cyclopropanecarboxamide], the IC50 is 0.0248 µM on 5-HT2A [1], 100 µM on 5-HT2C and 100 µM against 5-HT2B. Moreover, the Ki at 5-HT2A [2] (setting [3]) is 0.00406 µM.
For `COCCNCCOc1ccc(NC(=O)C2CC2)cc1-c1c(C)ncnc1C` [Compound 361, N-(3-(4,6-dimethylpyrimidin-5-yl)-4-(2-((2-methoxyethyl)amino)ethoxy)phenyl)cyclopropanecarboxamide], the results for the 50% inhibitory concentration (IC50) against 5-HT2A [1], against 5-HT2C and on 5-HT2B were 0.00927 µM, 100 µM and 100 µM, respectively. Further, the Ki on 5-HT2A [2] (setting [3]) was 0.00433 µM.
Take `Cc1ncnc(C)c1-c1cc(NC(=O)C2CC2)ccc1OC1CNC1` [Compound 396, N-[4-(azetidin-3-yloxy)-3-(4,6-dimethylpyrimidin-5-yl)phenyl]cyclopropanecarboxamide]: the half-inhibitory concentration (IC50) against 5-HT2A [1] was 0.0505 µM; at 5-HT2C it was 100 µM; against 5-HT2B, 100 µM. In addition, the Ki at 5-HT2A [2] (setting [3]) is 0.00593 µM.
As for `Cc1ncnc(C)c1-c1cc(NC(=O)C2(F)CC2)ccc1OC1CNC1` [Compound 398, N-(4-(azetidin-3-yloxy)-3-(4,6-dimethylpyrimidin-5-yl)phenyl)-1-fluorocyclopropane-1-carboxamide], the 50% inhibitory concentration (IC50) against 5-HT2A [1] came out at 0.0338 µM; against 5-HT2C, 100 µM; against 5-HT2B, 100 µM. In addition, on 5-HT2A [2] (setting [3]), the Ki was 0.00626 µM.
As for `Cc1ncnc(C)c1-c1cc(NC(=O)c2ccccc2)ccc1OC1CNC1` [Compound 400, N-(4-(azetidin-3-yloxy)-3-(4,6-dimethylpyrimidin-5-yl)phenyl)benzamide], the half-maximal inhibitory concentration (IC50) on 5-HT2A [1] turned out to be 0.0386 µM; against 5-HT2C, 100 µM; against 5-HT2B it was 100 µM. In addition, the inhibition constant (Ki) at 5-HT2A [2] (setting [3]) is 0.0042 µM.
As for `Cc1ncnc(C)c1-c1cc(NC(=O)[C@@H]2C[C@H]2F)ccc1O[C@@H]1CCCNC1` [Compound 409, (1S,2R)—N-(3-(4,6-dimethylpyrimidin-5-yl)-4-(((R)-piperidin-3-yl)oxy)phenyl)-2-fluorocyclopropane-1-carboxamide], the IC50 turned out to be 0.0189 µM on 5-HT2A [1], 100 µM at 5-HT2C and 2.92 µM against 5-HT2B. Further, the inhibition constant Ki at 5-HT2A [2] (setting [3]) turned out to be 0.00667 µM.
On the same counts, the results for `Cc1ncnc(C)c1-c1cc(NC(=O)C2(F)CC2)ccc1OC[C@H]1CCCCN1` [Compound 438, N-[3-(4,6-dimethylpyrimidin-5-yl)-4-[[(2R)-2-piperidyl]methoxy]phenyl]-1-fluoro-cyclopropanecarboxamide] are 0.0164 µM, 100 µM, 100 µM and 0.00918 µM.
Consider `Cc1ncnc(C)c1-c1cc(NC(=O)C2(F)CCC2)ccc1OC[C@H]1CCCCN1` [Compound 444, (R)—N-(3-(4,6-dimethylpyrimidin-5-yl)-4-(piperidin-2-ylmethoxy)phenyl)-1-fluorocyclobutane-1-carboxamide], for which the results for the 50% inhibitory concentration (IC50) against 5-HT2A [1], on 5-HT2C and on 5-HT2B were 0.0118 µM, 100 µM and 100 µM, respectively. For the same compound, at 5-HT2A [2] (setting [3]), the inhibition constant Ki is 0.00493 µM.

In general, IC50 refers to the concentration that inhibits the measured activity by half. High values mean weaker potency, low ones greater potency. As usually defined, the Ki is a dissociation constant, usually derived from enzyme kinetics or from competition with a known ligand.
